Experimental findings from ChEMBL document CHEMBL5512597, “Triazole hybrid compounds: A new frontier in malaria treatment” (Eur J Med Chem, 2023) are described below.

The term IC50 denotes the midpoint of a concentration-inhibition curve. The term CC50 denotes the concentration giving 50% cytotoxicity.

For data set [1], the system named is Plasmodium falciparum. In words: Antimalarial activity against CQ-sensitive Plasmodium falciparum 3D7 infected in human O+ erythrocytes assessed as parasite growth inhibition incubated for 48 hrs by SYBR Green I staining based analysis. In kind it is functional, organism-based. The settings on record: 3D7, Erythrocyte.
Data set [2] concerns Plasmodium falciparum. In words: Antimalarial activity against CQ-resistant Plasmodium falciparum K1 infected in human O+ erythrocytes assessed as parasite growth inhibition incubated for 48 hrs by SYBR Green I staining based analysis. The settings on record: K1, Erythrocyte. In kind it is functional, organism-based.
Data set [3] relates to Plasmodium falciparum. Briefly: Antimalarial activity against Plasmodium falciparum 3D7 at asexual stage infected in erythrocytes assessed as parasite growth inhibition incubated for 72 hrs by MSF assay. In kind it is functional, organism-based. The settings on record: 3D7, Erythrocyte.
Data set [4] has as its system Plasmodium falciparum. In words: Antimalarial activity against CQ-sensitive Plasmodium falciparum D6 assessed as parasite growth inhibition by LDH assay. In kind it is functional, organism-based.
For data set [5], the system named is Plasmodium falciparum. In words: Antimalarial activity against CQ-resistant Plasmodium falciparum W2 assessed as parasite growth inhibition by LDH assay. In kind it is functional, organism-based.
Data set [6] is described as follows: Cytotoxicity against African green monkey Vero cells after 72 hrs by MTT assay. The settings on record: chlorocebus sabaeus. In kind it is toxicity, cell-based. A general note: Tetrazolium dyes change colour on reduction, which living cells bring about.
The test system of data set [7] is Plasmodium falciparum. In words: Antimalarial activity against Plasmodium falciparum W2 assessed as parasite growth inhibition. In kind it is functional, organism-based.
In data set [8] the test system is Plasmodium falciparum. Briefly: Antimalarial activity against Plasmodium falciparum 3D7 assessed as inhibition of parasite proliferation. It counts as functional, organism-based.
The test system of data set [9] is Plasmodium falciparum. In words: Antiplasmodial activity against CQ-sensitive Plasmodium falciparum NF54 at asexual stage assessed as parasite growth inhibition. In kind it is functional, organism-based.
The subject of data set [10] is Plasmodium falciparum. Briefly: Antiplasmodial activity against Plasmodium falciparum K1 at asexual stage assessed as parasite growth inhibition. In kind it is functional, organism-based.

Regarding `Clc1ccc2c(-c3cn(CC(c4ccccc4)c4ccccc4)nn3)ccnc2c1`, the figures for the IC50 in data set [1] and in [2] were 91.8 µM and 72 µM, respectively.
For the compound `O=C(Cn1cc(-c2ccccc2)nn1)NCCCNc1ccnc2cc(Cl)ccc12`, the IC50 in data set [3] was 0.137 µM.
`O=C1c2nnn(Cc3cccc([N+](=O)[O-])c3)c2C(=O)c2nnn(Cc3cccc([N+](=O)[O-])c3)c21`: the results for the IC50 in data set [4] and in [5] were 1.91 µM and 2.89 µM, respectively.
For `COC(=O)c1ccccc1-c1ccc(Cn2cc(-c3cncc4ccccc34)nn2)cc1`, the results for the IC50 in [1] and in [2] were 35.8 µM and 52 µM, respectively.
In the case of `O=C(Cn1cc(COc2ccc(Cl)cc2)nn1)NCCNc1ccnc2cc(Cl)ccc12`, the CC50 at 72 h in data set [6] is 86.8 µM. In [3], the IC50 was found to be 0.04 µM.
For `C=C[C@H]1CN2CC[C@H]1C[C@H]2[C@H](c1ccnc2ccccc12)n1cc(CO)nn1`, the IC50 in data set [7] is 6.82 µM.
Turning to `CC(C)(CO)[C@@H](O)C(=O)NCCc1cn(CCc2ccccc2)nn1`, in data set [8], the IC50 was 5.4 µM.
In the case of `CCCCCc1cn(CCNC(=O)[C@H](O)C(C)(C)CO)nn1`, the IC50 in data set [8] is 8.5 µM.
In the case of `CCCCn1cc(CCNC(=O)[C@H](O)C(C)(C)CO)nn1`, the IC50 in [8] turned out to be 3.3 µM.
`CCCCCn1nncc1CCNC(=O)[C@H](O)C(C)(C)CO`: the IC50 in [8] is above 100 µM.
Consider `CCCn1cc(CCNC(=O)[C@H](O)C(C)(C)CO)nn1`, for which, in [8], the IC50 was found to be 5.3 µM.
Take `Cc1cccc(Cn2nnc3c2C(=O)c2nnn(Cc4cccc(C)c4)c2C3=O)c1`: the IC50 in data set [4] stood at 8.37 µM; in data set [5] it was 6.61 µM.
For `C=C[C@H]1CN2CC[C@H]1C[C@H]2[C@H](c1ccnc2ccccc12)n1cc(C(C)(C)N)nn1`, in [7], the IC50 turned out to be 4.62 µM.
In the case of `C=C[C@H]1CN2CC[C@H]1C[C@H]2[C@H](c1ccnc2ccccc12)n1cc(C(C)(C)O)nn1`, the IC50 in [7] is 2.59 µM.
As to `COC(=O)C1=C(Cn2cc(CNc3ccnc4cc(Cl)ccc34)nn2)NC(=O)NC1c1ccc(OC)cc1` (stereo not drawn), the IC50 in [9] was found to be 0.245 µM; in data set [10], 0.567 µM.
`COC(=O)C1=C(Cn2cc(CNc3ccnc4cc(Cl)ccc34)nn2)N(C)C(=O)NC1c1ccc(F)cc1` (stereo not drawn): the IC50 in data set [9] is 0.138 µM; in data set [10], 0.498 µM.
As to `O=C1c2nnn(Cc3cccc(F)c3)c2C(=O)c2nnn(Cc3cccc(F)c3)c21`, the IC50 is 0.679 µM in [4] and 0.583 µM in [5].
Take `CC(C)(C)c1ccc(Cn2cc(-c3cccc4ccccc34)nn2)cc1`: the IC50 in [1] was 36.9 µM; in [2], 42.2 µM.
On to `Clc1ccc(-n2cc(-c3cncc4ccccc34)nn2)cc1`, for which the IC50 came to 36.9 µM in [1] and 4.55 µM in data set [2].
Consider `CCCCCn1nncc1CNC(=O)[C@H](O)C(C)(C)CO`, for which the IC50 in data set [8] is 36 µM.
As for `COC(=O)C1=C(Cn2cc(CNc3ccnc4cc(Cl)ccc34)nn2)NC(=O)NC1c1ccc(F)cc1` (stereo not drawn), the IC50 in [9] was determined as 0.217 µM; in data set [10], 0.551 µM.
As to `C=C[C@H]1CN2CC[C@H]1C[C@H]2[C@H](c1ccnc2ccccc12)n1cc(CCC)nn1`, the IC50 in data set [7] is 1.99 µM.
Regarding `Clc1cccc(-n2cc(-c3cncc4ccccc34)nn2)c1`, the figures for the IC50 in data set [1] and in data set [2] were 365 µM and 95.8 µM, respectively.
On to `C=C[C@H]1CN2CC[C@H]1C[C@H]2[C@H](c1ccnc2ccccc12)n1cc(-c2ccccc2)nn1`, for which the IC50 in [7] worked out at 4.65 µM.
`O=C(Cn1cc(COc2ccc(Br)cc2)nn1)NCCNc1ccnc2cc(Cl)ccc12` gave a CC50 at 72 h in data set [6] of 28.9 µM. In addition, the IC50 in data set [3] is 0.04 µM.
`O=C(Cn1cc(COc2ccc(Br)cc2)nn1)NCCCNc1ccnc2cc(Cl)ccc12` displayed a CC50 at 72 h in data set [6] of 27.1 µM.
Regarding `COC(=O)C1=C(Cn2cc(CNc3ccnc4cc(Cl)ccc34)nn2)N(C)C(=O)NC1c1ccc(OC)cc1` (stereo not drawn), the IC50 in [9] worked out at 0.18 µM; in [10], 0.422 µM.
As to `O=C1c2nnn(Cc3cccc(Cl)c3)c2C(=O)c2nnn(Cc3cccc(Cl)c3)c21`, the IC50 in [4] amounted to 6.32 µM; in data set [5], 7.61 µM.
